Data from patent US7709482B2, “Polycyclic heteroaryl substituted triazoles useful as Axl inhibitors” (Rigel Pharmaceuticals, Inc., priority 2006, dated 2010).

Each compound was assayed against T1, Axl (Homo sapiens, UniProt P30530) (assay: Phospho-Akt In-Cell Western Assay (inhibition of Axl activity after Axl-antibody cross-linking)). Details: Hela cells, phospho-Akt chemiluminescence normalized to relative cell number; compounds of formula (Ia), Table 1; read-out: IC50.
T1 construct: endogenous in cells; host or cells: HeLa cells
T1 sequence (P30530 26-894): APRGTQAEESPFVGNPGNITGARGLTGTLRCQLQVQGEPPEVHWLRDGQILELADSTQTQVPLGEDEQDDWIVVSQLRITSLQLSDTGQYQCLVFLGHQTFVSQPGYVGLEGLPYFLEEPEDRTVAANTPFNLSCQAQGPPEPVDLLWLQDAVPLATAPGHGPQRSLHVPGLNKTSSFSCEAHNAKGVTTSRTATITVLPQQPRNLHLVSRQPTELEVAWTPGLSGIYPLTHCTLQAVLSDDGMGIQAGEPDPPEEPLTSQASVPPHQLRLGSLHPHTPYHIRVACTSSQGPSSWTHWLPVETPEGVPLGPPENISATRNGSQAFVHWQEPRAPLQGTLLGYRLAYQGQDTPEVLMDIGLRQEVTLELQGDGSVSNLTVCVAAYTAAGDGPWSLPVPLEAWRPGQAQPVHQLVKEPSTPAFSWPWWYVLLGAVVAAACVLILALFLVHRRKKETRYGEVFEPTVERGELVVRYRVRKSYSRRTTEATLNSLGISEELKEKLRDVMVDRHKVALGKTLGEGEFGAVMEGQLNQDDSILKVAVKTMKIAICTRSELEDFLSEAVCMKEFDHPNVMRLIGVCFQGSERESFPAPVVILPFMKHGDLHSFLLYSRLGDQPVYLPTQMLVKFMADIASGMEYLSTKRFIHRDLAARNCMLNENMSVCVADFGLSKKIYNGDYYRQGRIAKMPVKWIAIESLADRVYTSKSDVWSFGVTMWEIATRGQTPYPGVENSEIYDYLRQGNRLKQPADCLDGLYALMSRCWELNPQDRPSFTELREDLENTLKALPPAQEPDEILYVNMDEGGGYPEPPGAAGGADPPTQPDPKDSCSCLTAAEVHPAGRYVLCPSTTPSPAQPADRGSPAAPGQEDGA
Format: cell-based
Outline: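 HeLa cells on poly-L-lysine, starved 24 h in 0.5% FCS DMEM with Axl/Fc 500 ng/mL, pre-treated with compound 1 h at 37 °C, then stimulated 5 min by anti-Axl/anti-mouse antibody cross-linking. Fixed cells probed for phospho-Akt with HRP secondary and chemiluminescent detection.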

`Nc1nc(Nc2ccc(N3CCC(N4CCCC4)CC3)cc2)nn1-c1cc2c(nn1)-c1ccccc1SCC2` [Compound 120, 1-(6,7-dihydro-5H-benzo[2,3]thiepino[4,5-c]pyridazin-3-yl)-N^3-(4-(4-pyrrolidin-1-ylpiperidinyl)phenyl)-1H-1,2,4-triazole-3,5-diamine] and `Nc1nc(Nc2ccc(N3CCC(CN4CCCC4)CC3)c(F)c2)nn1-c1cc2c(nn1)-c1ccccc1SCC2` [Compound 125, 1-(6,7-dihydro-5H-benzo[2,3]thiepino[4,5-c]pyridazin-3-yl)-N^3-(3-fluoro-4-(4-(pyrrolidinylmethyl)-piperidinyl)phenyl)-1H-1,2,4-triazole-3,5-diamine] cannot be ordered by IC50: under 1000 nM for the first, under 1000 nM for the second.

`CN(C)CCN1CCOc2cc(Nc3nc(N)n(-c4cc5c(nn4)-c4ccccc4CCC5)n3)ccc21` [Compound 121, 1-(6,7-dihydro-5H-benzo[6,7]cyclohepta[1,2-c]pyridazin-3-yl)-N^3-(4-(2-dimethylaminoethyl)-(3,4-dihydro-2H-benzo[b][1,4]oxazin-7-yl))-1H-1,2,4-triazole-3,5-diamine] and `CN(C)CCN1CCOc2cc(Nc3nc(N)n(-c4cc5c(nn4)-c4ccccc4OCC5)n3)ccc21` [Compound 122, 1-(6,7-dihydro-5H-benzo[2,3]oxepino[4,5-c]pyridazin-3-yl)-N^3-(4-(2-dimethylaminoethyl)-(3,4-dihydro-2H-benzo[b][1,4]oxazin-7-yl))-1H-1,2,4-triazole-3,5-diamine] cannot be ordered by IC50: under 1000 nM for the first, under 1000 nM for the second.

`Nc1nc(Nc2ccc(N3Cc4ccccc4C3)c(F)c2)nn1-c1cc2c(nn1)-c1ccccc1SCC2` [Compound 123, 1-(6,7-dihydro-5H-benzo[2,3]thiepino[4,5-c]pyridazin-3-yl)-N^3-(3-fluoro-4-(isoindolin-2-yl)phenyl)-1H-1,2,4-triazole-3,5-diamine] and `Nc1nc(Nc2ccc(N3CC[C@H]4CCCC[C@@H]4C3)c(F)c2)nn1-c1cc2c(nn1)-c1ccccc1SCC2` [Compound 126, 1-(6,7-dihydro-5H-benzo[2,3]thiepino[4,5-c]pyridazin-3-yl)-N^3-(3-fluoro-4-((4aR,8aS)-decahydroisoquinolin-2-yl)phenyl)-1H-1,2,4-triazole-3,5-diamine] cannot be ordered by IC50: over 20000 nM for the first, over 20000 nM for the second.

First: Nc1nc(Nc2ccc(N3CCC(CN4CCCC4)CC3)c(F)c2)nn1-c1cc2c(nn1)-c1ccccc1CCC2 [Compound 124, 1-(6,7-dihydro-5H-benzo[6,7]cyclohepta[1,2-c]pyridazin-3-yl)-N^3-(3-fluoro-4-(4-(pyrrolidinylmethyl)-piperidinyl)phenyl)-1H-1,2,4-triazole-3,5-diamine]
Second: Nc1nc(Nc2ccc(N3CC[C@H]4CCCC[C@@H]4C3)c(F)c2)nn1-c1cc2c(nn1)-c1ccccc1CCC2 [Compound 127, 1-(6,7-dihydro-5H-benzo[6,7]cyclohepta[1,2-c]pyridazin-3-yl)-N^3-(3-fluoro-4-((4aR,8aS)-decahydroisoquinolin-2-yl)phenyl)-1H-1,2,4-triazole-3,5-diamine]
The IC50 of the first is lower: under 1000 nM for the first, 1000 to 10000 nM for the second.

Same assay, conditions: inhibition of Axl activity; Table 1, compounds of formula (Ia); read-out: IC50

First: Nc1nc(Nc2ccc(N3CCN4CCCCC4C3)c(F)c2)nn1-c1cc2c(nn1)-c1ccccc1CCC2 (stereo not shown) [Compound 128, 1-(6,7-dihydro-5H-benzo[6,7]cyclohepta[1,2-c]pyridazin-3-yl)-N^3-(3-fluoro-4-(octahydro-1H-pyrido[1,2-a]pyrazin-2-yl)phenyl)-1H-1,2,4-triazole-3,5-diamine]
Second: Nc1nc(Nc2ccc(N3CCC(N4CCCC4)C3)c(F)c2)nn1-c1cc2c(nn1)-c1ccccc1CCC2 (stereo not shown) [Compound 132, 1-(6,7-dihydro-5H-benzo[6,7]cyclohepta[1,2-c]pyridazin-3-yl)-N^3-(3-fluoro-(4-(3-pyrrolidin-1-yl)pyrrolidin-1-yl)phenyl)-1H-1,2,4-triazole-3,5-diamine]
The IC50 of the first is higher: 1000 to 10000 nM for the first, under 1000 nM for the second. The second is the more potent here.

`Nc1nc(Nc2ccc(N3CCN4CCCCC4C3)c(F)c2)nn1-c1cc2c(nn1)-c1ccccc1SCC2` (stereo not shown) [Compound 129, 1-(6,7-dihydro-5H-benzo[2,3]thiepino[4,5-c]pyridazin-3-yl)-N^3-(3-fluoro-4-(octahydro-1H-pyrido[1,2-a]pyrazin-2-yl)phenyl)-1H-1,2,4-triazole-3,5-diamine] and `CN1CC2CN(C3CCN(c4ccc(Nc5nc(N)n(-c6cc7c(nn6)-c6ccccc6CCC7)n5)cc4F)CC3)CC2C1` (stereo not shown) [Compound 134, 1-(6,7-dihydro-5H-benzo[6,7]cyclohepta[1,2-c]pyridazin-3-yl)-N^3-(3-fluoro-4-(4-(5-methyloctahydropyrrolo[3,4-c]pyrrolyl)piperidin-1-yl)phenyl)-1H-1,2,4-triazole-3,5-diamine] cannot be ordered by IC50: under 1000 nM for the first, under 1000 nM for the second.

First: CCN(CC)CC1CCCN1c1ccc(Nc2nc(N)n(-c3cc4c(nn3)-c3ccccc3CCC4)n2)cn1 (stereo not shown) [Compound 130, 1-(6,7-dihydro-5H-benzo[6,7]cyclohepta[1,2-c]pyridazin-3-yl)-N^3-(6-(2-diethylaminomethyl)pyrrolidin-1-ylpyridin-3-yl)-1H-1,2,4-triazole-3,5-diamine]
Second: CCN(CC)C1CCN(c2ccc(Nc3nc(N)n(-c4cc5c(nn4)-c4ccccc4CCC5)n3)cn2)C1 (stereo not shown) [Compound 133, 1-(6,7-dihydro-5H-benzo[6,7]cyclohepta[1,2-c]pyridazin-3-yl)-N^3-(6-(3-diethylaminopyrrolidin-1-yl)pyridin-3-yl)-1H-1,2,4-triazole-3,5-diamine]
The IC50 of the first is higher: 1000 to 10000 nM for the first, under 1000 nM for the second.

Compared with `CN(C)CCN1CCN(C(=O)c2cc3cc(Nc4nc(N)n(-c5cc6c(nn5)-c5ccccc5SCC6)n4)ccc3s2)CC1` [Compound 131, 1-(6,7-dihydro-5H-benzo[2,3]thiepino[4,5-c]pyridazin-3-yl)-N^3-(2-(1-(4-(2-(dimethylamino)ethyl)-piperazin-1-yl)oxomethyl)benzo[b]thio-phen-5-yl)-1H-1,2,4-triazole-3,5-diamine], `Nc1nc(Nc2ccc(/C=C/CN3CCCCC3)nc2)nn1-c1cc2c(nn1)-c1ccccc1CCC2` [Compound 138, 1-(6,7-dihydro-5H-benzo[6,7]cyclohepta[1,2-c]pyridazin-3-yl)-N^3-(6-(3-piperidin-1-yl-(E)-propenyl)pyridin-3-yl)-1H-1,2,4-triazole-3,5-diamine] is lower in IC50: 1000 to 10000 nM for the first, under 1000 nM for the second. The second is the more potent here.

Compared with `CN1CCN(C2CCN(C/C=C/c3ccc(Nc4nc(N)n(-c5cc6c(nn5)-c5ccccc5CCC6)n4)cn3)CC2)CC1` [Compound 135, 1-(6,7-dihydro-5H-benzo[6,7]cyclohepta[1,2-c]pyridazin-3-yl)-N^3-(6-(3-(4-(N-methylpiperazin-4-yl)piperidin-1-yl)-(E)-propenyl)pyridin-3-yl)-1H-1,2,4-triazole-3,5-diamine], `Nc1nc(Nc2ccc(/C=C/CN3CCC(N4CCCC4)CC3)nc2)nn1-c1cc2c(nn1)-c1ccccc1CCC2` [Compound 141, 1-(6,7-dihydro-5H-benzo[6,7]cyclohepta[1,2-c]pyridazin-3-yl)-N^3-(6-(3-(4-(pyrrolidin-1-yl)piperidin-1-yl)-(E)-propenyl)pyridin-3-yl)-1H-1,2,4-triazole-3,5-diamine] is higher in IC50: under 1000 nM for the first, 1000 to 10000 nM for the second.

Compared with `Cc1cc(Nc2nc(N)n(-c3cc4c(nn3)-c3ccccc3CCC4)n2)cnc1N1CCC(N2CCCC2)CC1` [Compound 136, 1-(6,7-dihydro-5H-benzo[6,7]cyclohepta[1,2-c]pyridazin-3-yl)-N^3-(6-(4-(pyrrolidin-1-yl)piperidin-1-yl)-5-methylpyridin-3-yl)-1H-1,2,4-triazole-3,5-diamine], `Nc1nc(Nc2cnc3c(c2)CN(C2CCCC2)CCC3)nn1-c1cc2c(nn1)-c1ccccc1CCC2` [Compound 139, 1-(6,7-dihydro-5H-benzo[6,7]cyclohepta[1,2-c]pyridazin-3-yl)-N^3-(6-cyclopentyl-6,7,8,9-tetrahydro-5H-pyrido[3,2-c]azepin-3-yl)-1H-1,2,4-triazole-3,5-diamine] is higher in IC50: under 1000 nM for the first, over 20000 nM for the second. The first is the more potent here.

`Nc1nc(Nc2ccc(C3NCC4CNCC43)c(F)c2)nn1-c1cc2c(nn1)-c1ccccc1CCC2` (stereo not shown) [Compound 137, 1-(6,7-dihydro-5H-benzo[6,7]cyclohepta[1,2-c]pyridazin-3-yl)-N^3-(3-fluoro-4-(octahydropyrrolo[3,4-c]pyrrolyl)phenyl)-1H-1,2,4-triazole-3,5-diamine] and `Nc1nc(Nc2ccc(N3CCCN(C4CC5CCC4C5)CC3)nc2)nn1-c1cc2c(nn1)-c1ccccc1CCC2` (stereo not shown) [Compound 140, 1-(6,7-dihydro-5H-benzo[6,7]cyclohepta[1,2-c]pyridazin-3-yl)-N^3-(6-(4-(bicyclo[2.2.1]heptan-2-yl)-1,4-diazepan-1-yl)pyridin-3-yl)-1H-1,2,4-triazole-3,5-diamine] cannot be ordered by IC50: under 1000 nM for the first, under 1000 nM for the second.
